Measurements as given in patent US20040132643A1 (priority 2004, published 2004).

Tests used:
[1] = system: thyroglobulin; test: RT PCR and northern blot analysis of thyroglobulin expression in thyroid carcinoma cells; type: cell-based, human
Experimental: (§1) RT PCR and Northern blot analysis are described in detail in a number of standard molecular biology reference works, for example Ausubel et al., Short Protocols in Molecular Biology, John Wiley & Sons, 1998.
(§2) Total RNA was extracted from FR901228-treated and untreated thyroid carcinoma cells using RNA STAT-60 (Tel-Test, Inc.), at 24 hours, 48 hours, and 72 hours following addition of FR901228-containing or control solution to the cell cultures. RNA was also extracted from normal thyroid cells for purposes of comparison. The extracted RNA was used without further modification for northern blots. For RT PCR, the extracted RNA was reverse transcribed into cDNA using standard techniques.
Oligonucleotide primers used for PCR analysis of human thyroglobulin expression were: […]
Using these primers, the presence of human thyroglobulin cDNA template is reflected by a 219 bp PCR product.

[2] = system: FTC 236 cells; settings: 1 ng/ml FR901228 for 72 hours
Experimental: (§3) FTC 133 and FTC 236 cells were derived from cultures obtained from the primary tumor (FTC 133) and a nodal metastasis (FTC 236) of a human follicular thyroid carcinoma. […] Anaplastic thyroid carcinoma lines SW-1736 and KAT-4 were derived from primary cultures of human anaplastic thyroid carcinoma tumors.
(§4) Each of these four cell lines was exposed to varying concentrations of FR901228 (0.01 ng/ml, 0.1 ng/ml, 1 ng/ml, 10 ng/ml) for 72 hours, following which cell viability was determined using the 3-[4,5-dimethylthiazol-2-yl]-2,5-diphenyl tetrazoliumbromide (MTT) assay, as described in Mosmann, J Immunol Methods 65:55-63, 1983, and Den Boer et al., Br. J. Haem. 105: 876-882, 2000. The MTT assay is a colorimetric assay of the loss of mitochondrial metabolic activity associated with cell death.

[3] = system: SW-1736 cells; settings: 1 ng/ml FR901228 for 72 hours
Experimental: as §3, §4

[4] = system: FTC 133 cells; settings: 1 ng/ml FR901228 for 72 hours
Experimental: as §3, §4

[5] = system: KAT-4 cells; settings: 1 ng/ml FR901228 for 72 hours
Experimental: as §3, §4

[6] = system: thymidine kinase (TK) promoter enhancer; test: TK-luciferase reporter assay (positive control) in transfected thyroid carcinoma cells; type: cell-based, human; settings: 1 ng/ml FR901228
Source text: As a positive control, FTC 236 and SW-1736 cells were transfected with a reporter plasmid encoding luciferase operably linked to the thymidine kinase (TK) promoter enhancer. The TK promoter enhancer is a constitutively active promoter element, meaning that it is not thyroid-specific and is fully active in all cell types.
For transfection, FTC 236 and SW-1736 cells were exposed to a transfection mixture of 0.5 micrograms of plasmid DNA, 4.5 microliters TransFast transfection reagent (Promega, Madison Wis.) and 200 microliters of RPMI medium. Plasmid DNA was either a TG-luciferase (TG-luc) construct or a TK-luciferase (TK-luc) construct. All transfections were performed in triplicate.
After incubating cells for one hour with the transfection mixture, cells were cultured in the presence or absence of 1 ng/ml FR901228 for two days. Cells were then harvested and lysed, and an extract of cellular protein was obtained. Total protein concentration in the extract was determined using the Bio-Rad protein assay system (Bio-Rad, Richmond Calif.). Luciferase activity was determined using the Luciferase Assay System (Promega, Madison Wis.), and was normalized to total protein concentration. […]

[7] = system: Na+/I- symporter; test: 125I iodine accumulation study in thyroid carcinoma cells; type: cell-based, human
Experimental: To evaluate the function of the Na^+/I^− symporter, iodine accumulation studies were performed. FTC 133, FTC 236 SW-1736 and KAT-4 cells were treated with 1 ng/ml FR901228 for two or three days, or left untreated. Cells were then incubated in 0.5 ml of Hanks' Balanced Salt Solution (HBSS; Life Technologies, Inc., Eggenstein, Germany) containing approximately 2 μCi carrier-free Na^125I (DuPont NEN, Boston, Mass.) and 30 μM NaI] ^125I for 10 minutes. For perchlorate studies NaCIO4 was added as a 100X solution in HBSS, to a final concentration of 30 and 100 μM, immediately after the addition of radiolabeled iodine. Excess radiolabeled iodine was then removed, and the amount of ^125I accumulated in the cells was determined by gamma counting.

[8] = system: histone deacetylase; test: Histone acetylation by immunofluorescence microscopy (anti-acetylated histone H3) in thyroid carcinoma cells; type: cell-based, human; settings: 1 ng/ml FR901228 for 72 hours
Experimental: Histone acetylation was detected by immunofluorescence microscopy. In this experimental approach, fixed cells are exposed to a primary antibody that specifically binds to acetylated histones, and then exposed to an FITC-labeled secondary antibody that binds to the primary antibody.
FTC 236 and SW-1736 cells were cultured as described in Example 1, and treated for 72 hours with 1 ng/ml FR901228. Control FTC 236 and SW-1736 received no FR901228, but were otherwise treated identically to the FR901228-exposed cells. After 72 hours, each culture was treated with trypsin, harvested, and subjected to low speed centrifugation to form a cell pellet. Cells from each pellet were placed on microscope slides and fixed with 95% ethanol/5% acetic acid for one minute at room temperature. After fixation, slides were washed twice with phosphate buffered saline (PBS) for 15 minutes, treated with 8% bovine serum albumin in PBS for one hour at room temperature, and washed 15 minutes in PBS.
The fixed cells were then incubated overnight at 4° C. with 5 ug/ml anti-alpha acetylated histone H3 in 2% bovine serum albumin in PBS (antibody obtained from Upstate Biotechnology, Lake Placid N.Y.). Subsequently, cells were washed twice with PBS for five minutes at room temperature and then incubated with horse anti-rabbit FITC-conjugated secondary antibody (from Vector Labs, Burlingame Calif.). […]

[9] = system: TG promoter-enhancer element; test: TG-luciferase reporter assay in transfected thyroid carcinoma cells; type: cell-based, human; settings: 1 ng/ml FR901228; for enhancement in luciferase activity over that observed in untreated cells / enhancement over RLU observed in untreated cells: TG-luc
[10] = system: Na+/I- symporter; test: RT PCR and northern blot analysis of Na+/I- symporter expression in thyroid carcinoma cells; type: cell-based, human
Experimental: as §1, §2
Oligonucleotide primers used for PCR analysis of human Na^+/I^− symporter expression were:
Using these primers, the presence of human Na^+/I^− symporter cDNA template is reflected by a 303 bp PCR product.

[11] = ATC cells, 72 hours of FR901228 exposure
[12] = FTC cells, 72 hours of FR901228
[13] = FTC cells, RT PCR and northern blot

SMILES: C/C=C1\NC(=O)[C@H]2CSSCC/C=C/[C@H](CC(=O)N[C@H](C(C)C)C(=O)N2)OC(=O)[C@H](C(C)C)NC1=O [FR901228]
- time after FR901228 at which increased TG expression was first observed ([1]; ATC cells): 48 h
- TG expression after 72 hours [1, 11]: further increases
- TG expression after 72 hours [1, 12]: further increases
- time following addition of FR901228 at which increased TG expression was detected [1, 13]: ≤ 24 h
- cytotoxicity (cell viability, MTT assay) [2]: not significantly cytotoxic
- cytotoxicity (cell viability, MTT assay) [3]: not significantly cytotoxic
- cytotoxicity (cell viability, MTT assay) [4]: not significantly cytotoxic
- cytotoxicity (cell viability, MTT assay) [5]: not significantly cytotoxic
- effect on luciferase activity in TK luc-transfected cells [6]: no effect
- iodine (125I) accumulation ([7]; four cell lines (FTC 133, FTC 236, SW-1736, KAT-4), 1 ng/ml FR901228, two and three days): Marked increases
- histone acetylation (nuclear fluorescence) relative to the control cells ([8]; FTC 236 cells): marked increase
- histone acetylation (nuclear fluorescence) relative to the control cells ([8]; SW-1736 cells): marked increase
- relative luciferase units (RLU) in TG-luc transfected cells, TK luc = 100% ([9]; FTC 133 cells): about 1000%
- enhancement in luciferase activity over that observed in untreated cells ([9]; FTC 133 cells): greater than tenfold
- relative luciferase units (RLU) in TG-luc transfected cells, TK luc = 100% ([9]; FTC 236 cells): about 1000%
- enhancement in luciferase activity over that observed in untreated cells ([9]; FTC 236 cells): greater than tenfold
- relative luciferase units (RLU) in TG-luc transfected cells, TK luc = 100% ([9]; KAT-4 cells): 400-500%
- enhancement over RLU observed in untreated cells ([9]; KAT-4 cells): greater than ten-fold
- relative luciferase units (RLU) in TG-luc transfected cells, TK luc = 100% ([9]; SW-1736 cells): 400-500%
- enhancement over RLU observed in untreated cells ([9]; SW-1736 cells): greater than ten-fold
- time after FR901228 at which increased Na+/I- symporter expression was first observed ([10]; ATC cells): 48 h
- Na+/I- symporter expression after 72 hours [10, 11]: further increases
- Na+/I- symporter expression after 72 hours [10, 12]: further increases
- time following addition of FR901228 at which increased Na+/I- symporter expression was detected [10, 13]: ≤ 24 h

SMILES: [O-][Cl+3]([O-])([O-])O [sodium perchlorate]
- inhibition of iodine (125I) accumulation ([7]; FR901228-treated thyroid carcinoma cells, perchlorate 30 and 100 μM): inhibited in a dose-dependent manner
